Experiment [1] concerns pApU (RNA, polymer) A/U. The experiment can be described thus: UV melting at 260 nm. As to conditions: Na+ (sodium cacodylate 50 mM); pH 7.0; r = 0.3 [peptide]/[phosphate], polynucleotide 2.0 × 10^-5 M; free Tm 48.9 °C; per base.
Experiment [2] has as its system pApU (RNA, polymer) A/U. As to the kind of experiment: fluorescence titration. As to conditions: Na+ (sodium cacodylate 50 mM); pH 7.0, 25 °C; Scatchard fit, fixed n = 0.3; per base.
Experiment [3] relates to p(dAdT)2 (DNA, polymer) AT. As to the kind of experiment: fluorescence titration. Particulars: Na+ (sodium cacodylate 50 mM); pH 7.0, 25 °C; Scatchard fit, fixed n = 0.3; per base.
Experiment [4] deals with p(dGdC)2 (DNA, polymer) GC. As to the kind of experiment: fluorescence titration. As to conditions: Na+ (sodium cacodylate 50 mM); pH 7.0, 25 °C; Scatchard fit, fixed n = 0.3; per base.
The test system of experiment [5] is ds-dA10-dT10 (oligoAT10) (DNA, duplex) AAAAAAAAAA/TTTTTTTTTT
The experiment can be described thus: HPLC after irradiation at 300 nm. As to conditions: ammonium acetate 100 mM; covalent; photoalkylation via quinone methide, 15 and 60 min, pH 7.0.

The structures appear in SMILES notation.

The term ΔTm denotes the shift of the melting midpoint relative to a reference.

As for `CN(C)Cc1cc(C[C@H](NC(=O)[C@@H](N)CNC(=O)c2ccc3ccc4cccc5ccc2c3c45)C(=O)OCc2ccccc2)ccc1O`, the ΔTm in the experiment with pApU (RNA, polymer) A/U [1] amounted to 1.9 ± 0.6 °C. Moreover, the logKa with pApU (RNA, polymer) A/U [2] is 6.8; in experiment [3], greater than 7; in experiment [4] it was 6.7.
For the molecule `CN(C)Cc1cc(C[C@H](NC(=O)[C@@H](N)CCCCNC(=O)c2ccc3ccc4cccc5ccc2c3c45)C(=O)OCc2ccccc2)ccc1O`, the ΔTm in the experiment on pApU (RNA, polymer) A/U [1] turned out to be 1.4 ± 0.2 °C. The logKa with pApU (RNA, polymer) A/U [2] was 6.9; in experiment [3] it was 6.8; in experiment [4], 6.6. In addition, the binding result in experiment [5] is on record as “yes”.

These data come from publication PMC10672942 (2023).
